Tested on: HIV-1 Lai (subtype B, X4)
Assay: In vitro testing of antiviral activity in the HeLa-P4 assay (β-Galactosidase reporter, luminescence)
Type: cell-based
Protocol: • Viruses: HIV-1 Lai (subtype B, X4); titer: 8 x 10^4/ml; 20 µl/batch • Cells: HeLa-P4; 2.5 x 10^4/batch
HeLa-P4 cells (from NIH AIDS Research and Reference Program) are a cell line, which was transfected with genes for the human CD4- and […] receptor and which are therefore infectable with HIV-1 (the CXCR4-receptor is expressed on the cells). For quantification of the HIV infection, the cells carry a reporter gene, i.e. β-Galactosidase gen, which is under control of the HIV-1 promoter. After infection, the Tat-protein of HIV-1 transactivates the reporter gene and the degree of infection can be quantified by measurement of the enzyme activity in the lysate of the cells. An inhibition of HIV-1 infection results in a reduction of the β-Galactosidase activity with respect to the infection with viruses without substance addition. The background is defined by measuring the enzyme activity in cells, to which no virus was added. Since in principle a lower infection may also be based on toxic effects of the substances to the cells, in addition to said assay a cytotoxicity assay is also carried out.
The test substances are prepared by adding 1 mg of each extract/concentrate in an Eppendorf vial and dissolving the sample in 1 ml of RPMI medium. The solution is filtered under sterile conditions and placed in a new Eppendorf vial. As a positive control, the T20-peptide (a known HIV-1 entry inhibitor; Enfuvirtide) is used. Dilution series of the test compounds alone, combinations thereof as well as of T20 in cell culture medium were prepared, wherein the samples have concentrations of 5, 10, 25, and 50 µg/ml for Marrubium vulgare, Cistus incanus and Ribes nigrum and combinations of extracts of Marrubium vulgare and Cistus incanus, and Marrubium vulgare and Ribes nigrum. For Marrubium vulgare, Borago officinalis and combinations of extracts of Marrubium vulgare and Borago officinalis concentrations of 5 and 50 µg/ml were tested. The given concentrations in the combinations relate to the concentration of each single extract, e.g. a concentration of 5 µg/ml means 5 µg/ml of Marrubium vulgare and 5 µg/ml of the extract of the other plant (Cistus incanus, Ribes nigrum, Borago officinalis).
The positive control T20 is used in concentrations of 100 and 200 nM. Each of the substance concentrations was tested in triplicates.
Day 1: Each of the substance dilutions of Marrubium vulgare (5, 10, 25, 50, […]), Ribes nigrum (5, 10, 25, and 50 µg/ml), Cistus incanus (5, 10, 25, and 50 µg/ml) and Borago officinalis (5 and 50 µg/m) is mixed with 20 µl of the HIV-1 Lai virus stock (titer 8x10^4/ml), vortexed, and pre-incubated at 37 °C for 30 minutes. The virus/substance mixture is added to 2.5 x 10^4 HeLa-P4 cells corresponding to an m.o.i. of 0.06, vortexed and incubated for 2 h at 37 °C. Afterwards the supernatant is removed, the cells are washed with medium and 100 µl of fresh medium is added. The cells are incubated for 2 days at 37 °C.
Accordingly, each of the substance dilutions of combinations of Marrubium vulgare and Ribes nigrum (5, 10, 25, and 50 µg/ml), Marrubium vulgare and Cistus incanus (5, 10, 25, and 50 µg/ml) and Marrubium vulgare and Borago officinalis (5 and 50 µg/ml) is mixed with 20 µl of the HIV-1 Lai virus stock (titer 8x10^4/ml), vortexed, and pre-incubated at 37 °C for 30 minutes. The virus/substance mixture is added to 2.5 x 10^4 HeLa-P4 cells, vortexed and incubated for 2 h at 37 °C. Afterwards the supernatant is removed, the cells are washed with medium and 100 µl of fresh medium is added. The cells are incubated for 2 days at 37 °C.
Day 3: The supernatant is removed, the cells are washed with 100 µl of medium and lysed in 50 µl of lysis buffer per each well (2.5 ml glycerol; 1.25 ml MES-Tris, 25 µl 1 M DTT, 250 µl Triton X100, H2O ad 25 ml) for 10 minutes on ice and removed at -80 °C. […]

Substance: Enfuvirtide [T20]
- LU (luminescence units) Average (100 nM): 16893 LU
- LU (luminescence units) Trial 1 (100 nM): 23855 LU
- LU (luminescence units) Trial 2 (100 nM): 13888 LU
- LU (luminescence units) Trial 3 (100 nM): 12937 LU
- LU (luminescence units) Average (200 nM): 8802 LU
- LU (luminescence units) Trial 1 (200 nM): 9407 LU
- LU (luminescence units) Trial 2 (200 nM): 7531 LU
- LU (luminescence units) Trial 3 (200 nM): 9468 LU

Source: patent publication EP2846814B1, “COMPOSITION FOR THE PREVENTION AND TREATMENT OF VIRAL INFECTIONS CAUSED BY RETROVIRUSES” (Pandalis, Georgios, priority 2012, dated 2013)
